The results in this text go back to patent US20210040118A1, “IMMUNOMODULATORS, COMPOSITIONS AND METHODS THEREOF” (BETTA PHARMACEUTICALS CO., LTD, priority 2018, published 2021).

The target in the assay is T1, PD-1/PD-L1 (Homo sapiens, UniProt Q9NZQ7).
T1 construct: Recombinant human PD-L1 protein (19-238) with a His-tag at the C-terminus; purchased AcroBiosystems PD1-H5229 (PD-L1); PD1-H5257 (PD-1)
The experiment in a line: PD-1/PD-L1 homogenous time-resolved fluorescence (HTRF) binding assay. Conditions: recombinant human PD-L1 (19-238) His-tag / human PD-1 (25-167) Fc tag. The essentials:
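Inhibitors were preincubated 40 min at 25°C with 10 nM His-tagged human PD-L1 (19-238) and 3 nM Fc-tagged human PD-1 (25-167) in PBS pH 7.4 containing Tween-20, BSA and 1% DMSO. After 60 min with europium anti-human IgG and anti-His-APC, 665/620 nm signal ratio gave IC50 via percent-control fit.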

T1 sequence (Q9NZQ7 19-238): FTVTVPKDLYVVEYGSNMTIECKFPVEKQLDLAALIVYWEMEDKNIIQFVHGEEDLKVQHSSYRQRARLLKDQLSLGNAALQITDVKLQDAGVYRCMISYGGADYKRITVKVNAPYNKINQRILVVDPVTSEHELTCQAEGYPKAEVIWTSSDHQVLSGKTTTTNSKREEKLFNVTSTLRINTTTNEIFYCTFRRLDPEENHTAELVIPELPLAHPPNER

A word on the IC50: it is the concentration needed to halve the response being measured. With `COB(CCCN1CCc2nc(C(=O)N3CCc4c(-c5cccc6c5CCN6C(=O)c5nc6c(s5)CN(CCCB(OC)OC)CC6)cccc43)sc2C1)OC` [Example 122, tetramethyl((([4,4′-biindoline]-1,1′-dicarbonyl)bis(6,7-dihydrothiazolo[5,4-c]pyridine-2,5(4H)-diyl))bis(propane-3,1-diyl))diboronate], the IC50 (class symbols) was less than 25 nM.

Take `Cc1c(Nc2nccc3cc(CNCC(=O)N(C)C)cnc23)cccc1-c1cccc(Nc2nccc3cc(CNCC(=O)N(C)C)cnc23)c1C` [Example 145, 2,2′-(((((2,2′-dimethyl-[1,1′-biphenyl]-3,3′-diyl)bis(azanediyl))bis(1,7-naphthyridine-8,3-diyl))bis(methylene))bis(azanediyl))bis(N,N-dimethylacetamide)]: the IC50 (class symbols) was less than 25 nM.

As to `O=C(c1nc2c(s1)CN(CCF)CC2)N1CCc2c(-c3cccc4c3CCN4C(=O)c3nc4c(s3)CN(CCF)CC4)cccc21` [Example 87, [4,4′-biindoline]-1,1′-diylbis((5-(2-fluoroethyl)-4,5,6,7-tetrahydrothiazolo[5,4-c]pyridin-2-yl)methanone)], the 50% inhibitory concentration (IC50) (class symbols) was less than 25 nM. As to `CN(C)C(=O)CN1CCc2nc(C(=O)N3CCc4c(-c5cccc6c5CCN6C(=O)c5nc6c(s5)CN(CC(=O)O)CC6)cccc43)sc2C1` [Example 109, 2-(2-(1′-(5-(2-(dimethylamino)-2-oxoethyl)-4,5,6,7-tetrahydrothiazolo[5,4-c]pyridine-2-carbonyl)-[4,4′-biindoline]-1-carbonyl)-6,7-dihydrothiazolo[5,4-c]pyridin-5(4H)-yl)acetic acid], for the setting “class symbols”, the IC50 was less than 25 nM.

Regarding `NC(=O)CN1CCc2nc(C(=O)N3CCc4c(-c5cccc6c5CCN6C(=O)c5nc6c(s5)CN(CC(=O)O)CC6)cccc43)sc2C1` [Example 107, 2-(2-(1′-(5-(2-amino-2-oxoethyl)-4,5,6,7-tetrahydrothiazolo[5,4-c]pyridine-2-carbonyl)-[4,4′-biindoline]-1-carbonyl)-6,7-dihydrothiazolo[5,4-c]pyridin-5(4H)-yl)acetic acid], the IC50 (class symbols) was less than 25 nM. The same measure, in the same setting: as for `CS(=O)(=O)NCCN1C2CCC1c1sc(C(=O)N3CCc4c(-c5cccc6c5CCN6C(=O)c5nc6c(s5)C5CCC(C6)N5CCNS(C)(=O)=O)cccc43)nc1C2` [Example 126, N,N′-((([4,4′-biindoline]-1,1′-dicarbonyl)bis(5,6,7,8-tetrahydro-4H-5,8-epiminocyclohepta[d]thiazole-2,9-diyl))bis(ethane-2,1-diyl))dimethanesulfonamide], the figure is less than 25 nM; as for `Cc1c(NC(=O)c2nc3c(s2)CNCC3)cccc1-c1cccc(NC(=O)c2nc3ccc(N)cc3s2)c1C` [Example 11, N-(3′-(6-aminobenzo[d]thiazole-2-carboxamido)-2,2′-dimethyl-[1,1′-biphenyl]-3-yl)-4,5,6,7-tetrahydrothiazolo[5,4-c]pyridine-2-carboxamide], 100 to 200 nM. On to `Cc1c(NC(=O)c2nc3c(s2)CN(C)CC3)cccc1-c1cccc(NC(=O)c2nc3c(s2)CN(C)CC3)c1C` [Example 2, N,N′-(2,2′-dimethyl-[1,1′-biphenyl]-3,3′-diyl)bis(5-methyl-4,5,6,7-tetrahydrothiazolo[5,4-c]pyridine-2-carboxamide)], for which, where the note is “numeric values”, the concentration for half-maximal inhibition (IC50) amounted to 0.74 nM. For the molecule `Cc1c(NC(=O)c2nc3c(n2C)CNCC3)cccc1-c1cccc(NC(=O)c2nc3c(n2C)CNCC3)c1C` [Example 64, N,N′-(2,2′-dimethylbiphenyl-3,3′-diyl)bis(3-methyl-4,5,6,7-tetrahydro-3H-imidazo[4,5-c]pyridine-2-carboxamide)], the IC50 (class symbols) is less than 25 nM. Still for that read-out and setting: the figure for `Cc1c(NC(=O)c2cnc(C(C)NCCO)cn2)cccc1-c1cccc(NC(=O)c2cnc(C(C)NCCO)cn2)c1C` (stereo not shown) [Example 181, N,N′-(2,2′-dimethyl-[1,1′-biphenyl]-3,3′-diyl)bis(5-(1-((2-hydroxyethyl)amino)ethyl)pyrazine-2-carboxamide)] is less than 25 nM; for `Cc1c(-c2cccc(N(C)C(=O)c3cc4c(s3)CNCC4)c2C)cccc1N(C)C(=O)c1cn2c(n1)CNCC2` [Example 5, N-(2,2′-dimethyl-3′-(N-methyl-5,6,7,8-tetrahydroimidazo[1,2-a]pyrazine-2-carboxamido)-[1,1′-biphenyl]-3-yl)-N-methyl-4,5,6,7-tetrahydrothieno[2,3-c]pyridine-2-carboxamide] it is 100 to 200 nM; for `CNC(C)c1cnc(C(=O)Nc2cccc(-c3cccc(NC(=O)c4cnc(C(C)NC)cn4)c3C)c2C)cn1` (stereo not shown) [Example 180, N,N′-(2,2′-dimethyl-[1,1′-biphenyl]-3,3′-diyl)bis(5-(1-(methylamino)ethyl)pyrazine-2-carboxamide)] it is less than 25 nM.

As for `Cc1c(Nc2nccc3cc(CNC4([C@H](C)O)CC4)cnc23)cccc1-c1cccc(Nc2nccc3cc(CNC4([C@H](C)O)CC4)cnc23)c1C` [Example 157, (1S,1'S)-1,1′-((((((2,2′-dimethyl-[1,1′-biphenyl]-3,3′-diyl)bis(azanediyl))bis(1,7-naphthyridine-8,3-diyl))bis(methylene))bis(azanediyl))bis(cyclopropane-1,1-diyl))bis(ethan-1-ol)], the IC50 (class symbols) is less than 25 nM.

Turning to `Cc1c(NC(=O)c2nc3c(o2)CNCC3)cccc1-c1cccc(NC(=O)c2nc3c(s2)CNCC3)c1C` [Example 14, N-(2,2′-dimethyl-3′-(4,5,6,7-tetrahydrothiazolo[5,4-c]pyridine-2-carboxamido)-[1,1′-biphenyl]-3-yl)-4,5,6,7-tetrahydrooxazolo[5,4-c]pyridine-2-carboxamide], the IC50 (class symbols) was less than 25 nM. `Cc1c(NC(=O)c2cc3c(s2)CNCC3)cccc1-c1cccc(NC(=O)c2cc3c(s2)CNCC3)c1C` [Example 32, N,N′-(2,2′-dimethyl-[1,1′-biphenyl]-3,3′-diyl)bis(4,5,6,7-tetrahydrothieno[2,3-c]pyridine-2-carboxamide)]: the IC50 (numeric values) is 18.1 nM. Regarding `Cc1c(NCc2nnc(C3(N)CCC3)s2)cccc1-c1cccc(NCc2nnc(C3(N)CCC3)s2)c1C` [Example 26, N3,N3′-bis((5-(1-aminocyclobutyl)-1,3,4-thiadiazol-2-yl)methyl)-2,2′-dimethyl-[1,1′-biphenyl]-3,3′-diamine], the IC50 (class symbols) fell in the range of 25 to 100 nM.

Turning to `Cc1c(NC(=O)c2nc3c(s2)CN(C(C)C)CC3)cccc1-c1cccc(NC(=O)c2nc3c(s2)CN(C(C)C)CC3)c1C` [Example 77, N,N′-(2,2′-dimethyl-[1,1′-biphenyl]-3,3′-diyl)bis(5-isopropyl-4,5,6,7-tetrahydrothiazolo[5,4-c]pyridine-2-carboxamide)], for the setting “class symbols”, the IC50 was in the range of 25 to 100 nM. Same read-out and setting: as for `O=C(O)CN1CCc2nc(C(=O)Nc3cccc(-c4cccc(NC(=O)c5nc6c(s5)CN(CC(=O)O)CC6)c4Cl)c3Cl)sc2C1` [Example 65, 2,2′-((((2,2′-dichloro-[1,1′-biphenyl]-3,3′-diyl)bis(azanediyl))bis(carbonyl))bis(6,7-dihydrothiazolo[5,4-c]pyridine-2,5(4H)-diyl))diacetic acid], the figure is less than 25 nM; as for `O=C(O)CN1C2CCC1c1sc(C(=O)N3CCc4c(-c5cccc6c5CCN6C(=O)c5nc6c(s5)C5CCC(C6)N5CC(=O)O)cccc43)nc1C2` [Example 110, 2,2′-(([4,4′-biindoline]-1,1′-dicarbonyl)bis(5,6,7,8-tetrahydro-4H-5,8-epiminocyclohepta[d]thiazole-2,9-diyl))diacetic acid], less than 25 nM; as for `Cc1c(NC(=O)c2nc3c(s2)CN(Cc2ccc(Cl)c(Cl)c2)CC3)cccc1-c1cccc(NC(=O)c2nc3c(s2)CN(Cc2ccc(Cl)c(Cl)c2)CC3)c1C` [Example 75, N,N′-(2,2′-dimethyl-[1,1′-biphenyl]-3,3′-diyl)bis(5-(3,4-dichlorobenzyl)-4,5,6,7-tetrahydrothiazolo[5,4-c]pyridine-2-carboxamide)], 100 to 200 nM. On the same count and under the same terms, the figure for `NC(=O)CN1CCc2nc(C(=O)N3CCc4c(-c5cccc6c5CCN6C(=O)c5nc6c(s5)CN(CC(N)=O)CC6)cccc43)sc2C1` [Example 104, 2,2′-(([4,4′-biindoline]-1,1′-dicarbonyl)bis(6,7-dihydrothiazolo[5,4-c]pyridine-2,5(4H)-diyl))diacetamide] is less than 25 nM; for `O=C(Nc1cccc(-c2cccc3c2CCN3C(=O)c2nc3c(s2)CNCC3)c1Cl)c1ncc(CNCCO)s1` [Example 101, N-(2-chloro-3-(1-(4,5,6,7-tetrahydrothiazolo[5,4-c]pyridine-2-carbonyl)indolin-4-yl)phenyl)-5-(((2-hydroxyethyl)amino)methyl)thiazole-2-carboxamide] it is less than 25 nM; for `Cc1c(NC(=O)c2ccc3c(n2)CCN(CC(=O)OC(C)(C)C)C3)cccc1-c1cccc(NC(=O)c2ccc3c(n2)CCN(CC(=O)OC(C)(C)C)C3)c1C` [Example 172, di-tert-butyl 2,2′-((((2,2′-dimethyl-[1,1′-biphenyl]-3,3′-diyl)bis(azanediyl))bis(carbonyl))bis(7,8-dihydro-1,6-naphthyridine-2,6(5H)-diyl))diacetate] it is 100 to 200 nM. Still for that read-out and setting: as for `Cc1c(NC(=O)c2nnc([C@@H]3CCCN3)s2)cccc1-c1cccc(NC(=O)c2nnc([C@@H]3CCCN3)s2)c1C` [Example 3, N,N′-(2,2′-dimethyl-[1,1′-biphenyl]-3,3′-diyl)bis(5-((S)-pyrrolidin-2-yl)-1,3,4-thiadiazole-2-carboxamide)], the figure is less than 25 nM. As for `Cc1c(Nc2nccc3cc(CNCC(=O)N(C)C)cnc23)cccc1-c1cccc2c1CCN2C(=O)C1=NC2CCN(CC(=O)O)CC2S1` (stereo not shown) [Example 165, 2-(2-(4-(3-((3-(((2-(dimethylamino)-2-oxoethyl)amino)methyl)-1,7-naphthyridin-8-yl)amino)-2-methylphenyl)indoline-1-carbonyl)-3a,6,7,7a-tetrahydrothiazolo[5,4-c]pyridin-5(4H)-yl)acetic acid], for the setting “class symbols”, the 50% inhibitory concentration (IC50) is less than 25 nM.
